The results in this text go back to patent publication US8044052B2, “Biaryl ether urea compounds” (Pfizer Inc., priority 2006, dated 2011).

One experiment deals with T1, Human FAAH (Homo sapiens, UniProt O00519).
T1 construct: made in house
T1 sequence (O00519 1-579): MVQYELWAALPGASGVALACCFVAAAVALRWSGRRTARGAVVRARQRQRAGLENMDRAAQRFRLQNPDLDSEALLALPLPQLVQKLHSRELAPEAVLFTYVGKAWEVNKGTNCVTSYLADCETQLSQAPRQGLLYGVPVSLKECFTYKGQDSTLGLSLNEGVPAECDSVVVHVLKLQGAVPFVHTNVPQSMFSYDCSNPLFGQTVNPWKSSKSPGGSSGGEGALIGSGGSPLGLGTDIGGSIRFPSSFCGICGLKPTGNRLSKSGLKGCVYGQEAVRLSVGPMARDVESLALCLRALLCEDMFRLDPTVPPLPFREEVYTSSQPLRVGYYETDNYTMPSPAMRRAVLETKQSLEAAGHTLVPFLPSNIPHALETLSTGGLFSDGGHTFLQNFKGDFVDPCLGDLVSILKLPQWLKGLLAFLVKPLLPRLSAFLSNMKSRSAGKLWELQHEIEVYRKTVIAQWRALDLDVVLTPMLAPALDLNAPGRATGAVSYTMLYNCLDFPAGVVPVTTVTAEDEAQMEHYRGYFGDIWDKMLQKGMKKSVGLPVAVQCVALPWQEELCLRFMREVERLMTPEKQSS
The experiment is described as follows: FAAH assay (glutamate dehydrogenase-coupled, oleamide substrate, absorbance at 340 nm). It counts as biochemical. As to conditions: irreversible inhibition, 1-4 nM FAAH, pH 7.4, 30° C., 90 min. The protocol: The FAAH assay was carried out in 384-well clear polystyrene plates in a total volume of 50 μl per well. All percents are by volume. To each well, was placed the reaction mixture (40 μl) containing 1-4 nM FAAH, 50 mM NaPi, pH 7.4, 3 mM α-ketoglutarate, 0.15 mM NADH, 7.5 U/ml glutamate dehydrogenase, 2 mM ADP, 1 mM EDTA, and 0.1% Triton X-100 (The concentration shown for each component is the final concentration in the assay). […] This was immediately followed by the addition of 5 μl oleamide (500 μM) dissolved in 75% EtOH/25% DMSO and the reaction mixture was mixed for 1.5 min. The final concentrations of DMSO and EtOH in the assay were each 7.5%.
Initial velocity data (V) were obtained from the slopes of the initial progressive curves. They were plotted as a function of substrate concentration and fit to the Michaelis-Menten equation (1) using Prism (GraphPad Software, Inc., San Diego, Calif.) software to obtain Km and Vmax values.
To obtain potencies of irreversible inhibitors, progressive curves consistent with first order inhibition kinetics (two-step irreversible inhibition mechanism) were fit to equation (2) by nonlinear least squares regressions to determine kobs values at each inhibitor concentration, where [P]t is the absorbance at time t, V0 is a constant related to the steady state rate of the uninhibited reaction, and kobs is the first order rate constant for enzyme inactivation. The inhibitor dissociation constant (Ki) and the first order rate
[formula] constant of enzyme inactivation at infinite inhibitor concentration (kinact) were then obtained by fitting the kobs vs. [I] curves to equation (3).
In the case of `O=C(Nc1ccc2cc[nH]c2n1)N1CCC(=Cc2cccc(Oc3ccc(C(F)(F)F)cn3)c2)CC1` [Example 13, N-1H-pyrrolo[2,3-b]pyridin-6-yl-4-(3-{[5-(trifluoromethyl)pyridin-2-yl]oxy}benzylidene) piperidine-1-carboxamide], the “hFAAH kinact/Ki” value was 3870 M⁻¹ s⁻¹.

Still in this experiment, the particulars now being: irreversible inhibition, 1-4 nM FAAH, pH 7.4, 30° C., 90 min, read-out: hFAAH kinact/Ki.
Consider `O=C(Nc1cccnn1)N1CCC(=Cc2cc(Oc3ccc(C(F)(F)F)cn3)cc(C3CC3)c2)CC1` [Example 64, 4-(3-cyclopropyl-5-(5-(trifluoromethyl)pyridin-2-yloxy)benzylidene)-N-(pyridazin-3-yl)piperidine-1-carboxamide], for which the kinact/KI is 417 M⁻¹ s⁻¹.

`O=C(Nc1cccnn1)N1CCC(=Cc2cccc(Oc3cnc4ccccc4n3)c2)CC1` [Example 122, N-pyridazin-3-yl-4-[3-(quinoxalin-2-yloxy)benzylidene]piperidine-1-carboxamide]: the kinact/KI is 909 M⁻¹ s⁻¹. For `O=C(Nc1ccc(C(F)(F)F)nc1)N1CCC(=Cc2cccc(Oc3ccc(C(F)(F)F)cn3)c2)CC1` [Example 126, N-[6-(trifluoromethyl)pyridin-3-yl]-4-(3-{[5-(trifluoromethyl)pyridin-2-yl]oxy}benzylidene)piperidine-1-carboxamide], the kinact/KI was 405 M⁻¹ s⁻¹. Still for that read-out and setting: as for `O=C(Nc1cccnn1)N1CCC(=Cc2cccc(Oc3ccc(Br)cn3)c2)CC1` [Example 34, 4-(3-(5-bromopyridin-2-yloxy)benzylidene)-N-(pyridazin-3-yl)piperidine-1-carboxamide], the figure is 50900 M⁻¹ s⁻¹; as for `O=C(Nc1cccnc1)N1CCC(=Cc2cccc(Oc3ccc(F)cc3)c2)CC1` [Example 20, 4-[3-(4-fluorophenoxy)benzylidene]-N-pyridin-3-ylpiperidine-1-carboxamide], 2380 M⁻¹ s⁻¹. Still for that read-out and setting: as for `CCc1cnc(Oc2cccc(C=C3CCN(C(=O)Nc4cccnn4)CC3)c2)nc1` [Example 107, 4-{3-[(5-ethylpyrimidin-2-yl)oxy]benzylidene}-N-pyridazin-3-ylpiperidine-1-carboxamide], the figure is 6220 M⁻¹ s⁻¹. For the compound `O=C(Nc1cccnn1)N1CCC(=Cc2cccc(Oc3ncc(C4CC4)cn3)c2)CC1` [Example 106, 4-{3-[(5-cyclopropylpyrimidin-2-yl)oxy]benzylidene}-N-pyridazin-3-ylpiperidine-1-carboxamide], the kinact/KI amounted to 3330 M⁻¹ s⁻¹.

As to `O=C(Nc1cccnn1)N1CCC(=Cc2cccc(Oc3ccc(C(F)(F)F)cn3)c2)CC1` [Example 5, N-pyridazin-3-yl-4-(3-{[5-(trifluoromethyl)pyridin-2-yl]oxy}benzylidene)piperidine-1-carboxamide], the kinact/KI was found to be 24700 M⁻¹ s⁻¹.

Regarding `Cc1cnc(Oc2cccc(C=C3CCN(C(=O)Nc4cccnn4)CC3)c2)nc1C(C)C` [Example 112, 4-{3-[(4-isopropyl-5-methylpyrimidin-2-yl)oxy]benzylidene}-N-pyridazin-3-ylpiperidine-1-carboxamide], the kinact/KI came out at 861 M⁻¹ s⁻¹.

In the case of `O=C(Nc1cccnc1)N1CCC(=Cc2ccc(Cl)c(Oc3ccc(C(F)(F)F)cn3)c2)CC1` [Example 59, 4-(4-chloro-3-(5-(trifluoromethyl)pyridin-2-yloxy)benzylidene)-N-(pyridin-3-yl)piperidine 1-carboxamide], the kinact/KI stood at 260 M⁻¹ s⁻¹. Same read-out and setting: as for `O=C(Nc1ccnnc1)N1CCC(=Cc2cccc(Oc3ccc(C(F)(F)F)cn3)c2)CC1` [Example 25, N-(pyridazin-4-yl)-4-(3-{[5-(trifluoromethyl)pyridin-2-yl]oxy}benzylidene)piperidine-1-carboxamide], the figure is 12100 M⁻¹ s⁻¹.

Turning to `Cc1nnc(Oc2cccc(C=C3CCN(C(=O)Nc4cccnn4)CC3)c2)c2ccccc12` [Example 119, 4-{3-[(4-methylphthalazin-1-yl)oxy]benzylidene}-N-pyridazin-3-ylpiperidine-1-carboxamide], the kinact/KI amounted to 77.7 M⁻¹ s⁻¹. Still for that read-out and setting: as for `O=C(Nc1onc2ccccc12)N1CCC(=Cc2cccc(Oc3ccc(F)cc3)c2)CC1` [Example 18, N-2,1-benzisoxazol-3-yl-4-[3-(4-fluorophenoxy)benzylidene]piperidine-1-carboxamide], the figure is 2730 M⁻¹ s⁻¹; as for `O=C(Nc1cccnc1)N1CCC(=C(c2ccccc2)c2cccc(Oc3ccc(C(F)(F)F)cn3)c2)CC1` [Example 68, 4-(phenyl(3-(5-(trifluoromethyl)pyridin-2-yloxy)phenyl)methylene)-N-(pyridin-3-yl)piperidine-1-carboxamide], 206 M⁻¹ s⁻¹; as for `O=C(Nc1cccnn1)N1CCC(=Cc2cc(Br)cc(Oc3ccc(C(F)(F)F)cn3)c2)CC1` [Example 63, 4-(3-bromo-5-(5-(trifluoromethyl)pyridin-2-yloxy)benzylidene)-N-(pyridazin-3-yl)piperidine-1-carboxamide], 2530 M⁻¹ s⁻¹. Turning to `O=C(Nc1ccc(Cl)nn1)N1CCC(=Cc2cccc(Oc3ccc(C(F)(F)F)cn3)c2)CC1` [Example 84, N-(6-chloropyridazin-3-yl)-4-(3-{[5-(trifluoromethyl)pyridin-2-yl]oxy}benzylidene)piperidine-1-carboxamide], the kinact/KI was 5590 M⁻¹ s⁻¹.

In the case of `O=C(Nc1ccccc1)N1CCC(=Cc2cccc(Oc3ccc(C(F)(F)F)cn3)c2)CC1` [Example 10, N-phenyl-4-(3-{[5-(trifluoromethyl)pyridin-2-yl]oxy}benzylidene)piperidine-1-carboxamide], the kinact/KI worked out at 3070 M⁻¹ s⁻¹. For the compound `Cc1ccc(Oc2cccc(C=C3CCN(C(=O)Nc4onc(C)c4C)CC3)c2)nc1` [Example 46, 4-(3-(5-methylpyridin-2-yloxy)benzylidene)-N-(3,4-dimethylisoxazol-5-yl)piperidine-1-carboxamide], the kinact/KI is 3700 M⁻¹ s⁻¹.

In the case of `O=C(Nc1ccc(Oc2cccnc2)nc1)N1CCC(=Cc2cccc(Oc3ccc(C(F)(F)F)cn3)c2)CC1` [Example 128, N-[6-(pyridin-3-yloxy)pyridin-3-yl]-4-(3-{[5-(trifluoromethyl)pyridin-2-yl]oxy}benzylidene)piperidine-1-carboxamide], the kinact/KI came to 1300 M⁻¹ s⁻¹. The same measure, in the same setting: as for `O=C(Nc1cccnn1)N1CCC(=Cc2cccc(Oc3ccc(C(=O)N4CCOCC4)cn3)c2)CC1` [Example 117, 4-(3-{[5-(morpholin-4-ylcarbonyl)pyridin-2-yl]oxy}benzylidene)-N-pyridazin-3-ylpiperidine-1-carboxamide], the figure is below 12.4 M⁻¹ s⁻¹. Consider `O=C(Nc1cccnc1)N1CCC(=Cc2cccc(Oc3ncc(Br)cn3)c2)CC1` [Example 36, 4-(3-(5-bromopyrimidin-2-yloxy)benzylidene)-N-(pyridin-3-yl)piperidine-1-carboxamide], for which the kinact/KI came out at 5070 M⁻¹ s⁻¹. For `O=C(Nc1cccnc1)N1CCC(=C(Br)c2cccc(Oc3ccc(C(F)(F)F)cn3)c2)CC1` [Example 66, 4-(bromo(3-(5-(trifluoromethyl)pyridin-2-yloxy)phenyl)methylene)-N-(pyridin-3-yl)piperidine-1-carboxamide], the kinact/KI turned out to be 1560 M⁻¹ s⁻¹.

On to `COc1ccc(NC(=O)N2CCC(=C(F)c3cccc(Oc4ccc(C(F)(F)F)cn4)c3)CC2)cn1` [Example 71, 4-(fluoro(3-(5-(trifluoromethyl)pyridin-2-yloxy)phenyl)methylene)-N-(6-methoxypyridin-3-yl)piperidine-1-carboxamide], for which the kinact/KI is 777 M⁻¹ s⁻¹.

With `COc1cc(Oc2cccc(C=C3CCN(C(=O)Nc4cccnn4)CC3)c2)ncn1` [Example 121, 4-{3-[(6-methoxypyrimidin-4-yl)oxy]benzylidene}-N-pyridazin-3-ylpiperidine-1-carboxamide], the kinact/KI was found to be 896 M⁻¹ s⁻¹.
